Measurements as given in ChEMBL document CHEMBL5137044, “Expansion of the S-CN-DABO scaffold to exploit the impact on inhibitory activities against the non-nucleoside HIV-1 reverse transcriptase” (Eur J Med Chem, 2022).

Legend:
[1] = system: Human immunodeficiency virus 1; experiment: Antiviral activity against […] HIV-1 infected in human MT4 cells assessed as reduction in virus-induced cytopathic effect incubated for 5 days by MTT assay; type: functional, organism-based; details: Human immunodeficiency virus 1, MT4, 120 h
[2] = Cytotoxicity against human MT4 cells assessed as cell growth inhibition incubated for 5 days by MTT assay; type: toxicity, cell-based; details: time 5 day
[3] = Selectivity index, ratio of CC50 for human MT4 cells to EC50 for antiviral activity against NNRTI resistant HIV-1 infected in human MT4 cells; type: toxicity, cell-based; details: read-out: Ratio CC50/EC50
[4] = system: Human immunodeficiency virus 1; experiment: Antiviral activity against drug-resistant HIV-1 L100I mutant infected in human MT4 cells assessed as reduction in virus-induced cytopathic effect incubated for 5 days by MTT assay; type: functional, organism-based; details: Human immunodeficiency virus 1, L100I mutant, MT4, 120 h
[5] = system: Human immunodeficiency virus 1; experiment: Antiviral activity against drug-resistant HIV-1 K103 N mutant infected in human MT4 cells assessed as reduction in virus-induced cytopathic effect incubated for 5 days by MTT assay; type: functional, organism-based; details: Human immunodeficiency virus 1, K103 N mutant, MT4, 120 h
[6] = system: Human immunodeficiency virus 1; experiment: Antiviral activity against drug-resistant HIV-1 Y181C mutant infected in human MT4 cells assessed as reduction in virus-induced cytopathic effect incubated for 5 days by MTT assay; type: functional, organism-based; details: Human immunodeficiency virus 1, Y181C mutant, MT4, 120 h
[7] = system: Human immunodeficiency virus 1; experiment: Antiviral activity against drug-resistant HIV-1 Y188L mutant infected in human MT4 cells assessed as reduction in virus-induced cytopathic effect incubated for 5 days by MTT assay; type: functional, organism-based; details: Human immunodeficiency virus 1, Y188L mutant, MT4, 120 h
[8] = system: Human immunodeficiency virus 1; experiment: Antiviral activity against drug-resistant HIV-1 E138K mutant infected in human MT4 cells assessed as reduction in virus-induced cytopathic effect incubated for 5 days by MTT assay; type: functional, organism-based; details: Human immunodeficiency virus 1, E138K mutant, MT4, 120 h
[9] = target: Human immunodeficiency virus type 1 reverse transcriptase (Human immunodeficiency virus 1, UniProt Q72547); experiment: Inhibition of recombinant wild-type p66/p51 HIV-1 reverse transcriptase incubated for 40 mins by picogreen dye-based spectrofluorometric analysis
[10] = Fold resistance, ratio of EC50 for antiviral activity against drug-resistant HIV-1 L100I mutant infected in human MT4 cells to EC50 for antiviral activity against […] HIV-1 infected in human MT4 cells; type: functional
[11] = Fold resistance, ratio of EC50 for antiviral activity against drug-resistant HIV-1 K103 N mutant infected in human MT4 cells to EC50 for antiviral activity against […] HIV-1 infected in human MT4 cells; type: functional
[12] = Fold resistance, ratio of EC50 for antiviral activity against drug-resistant HIV-1 Y181C mutant infected in human MT4 cells to EC50 for antiviral activity against […] HIV-1 infected in human MT4 cells; type: functional
[13] = Fold resistance, ratio of EC50 for antiviral activity against drug-resistant HIV-1 Y188L mutant infected in human MT4 cells to EC50 for antiviral activity against […] HIV-1 infected in human MT4 cells; type: functional
[14] = Fold resistance, ratio of EC50 for antiviral activity against drug-resistant HIV-1 E138K mutant infected in human MT4 cells to EC50 for antiviral activity against […] HIV-1 infected in human MT4 cells; type: functional

COc1cccc(C(C#N)c2nc(SC(C)C)[nH]c(=O)c2C)c1 (configuration not stated)
EC50 [1]: 0.138 µM | CC50 at 120 h [2]: 176 µM | selectivity ratio [3]: 1280 | EC50 [4]: 2.78 µM | EC50 [5]: 28.2 µM | EC50 [6]: 5.82 µM | EC50 [7]: 62 µM | EC50 [8]: 0.36 µM | IC50 [9]: 1.06 µM | Ratio EC50 [10]: 20 | Ratio EC50 [11]: 205 | Ratio EC50 [12]: 42 | Ratio EC50 [13]: 450 | Ratio EC50 [14]: 3

COc1cc(OC)cc(C(C#N)c2nc(SC(C)C)[nH]c(=O)c2C)c1 (configuration not stated)
EC50 [1]: 0.67 µM | CC50 at 120 h [2]: 41.1 µM | selectivity ratio [3]: 61 | EC50 [4]: 3.36 µM | EC50 [5]: > 41.1 µM | EC50 [6]: > 41.1 µM | EC50 [7]: > 41.1 µM | EC50 [8]: 2.54 µM | IC50 [9]: 2.58 µM | Ratio EC50 [10]: 5 | Ratio EC50 [11]: >61 | Ratio EC50 [12]: >61 | Ratio EC50 [13]: >61 | Ratio EC50 [14]: 4

COc1cc(F)cc(C(C#N)c2nc(SC(C)C)[nH]c(=O)c2C)c1 (configuration not stated)
EC50 [1]: 0.123 µM | CC50 at 120 h [2]: 161 µM | selectivity ratio [3]: 1310 | EC50 [4]: 3.94 µM | EC50 [5]: 23.1 µM | EC50 [6]: 5.23 µM | EC50 [7]: 54.4 µM | EC50 [8]: 0.35 µM | IC50 [9]: 0.236 µM | Ratio EC50 [10]: 32 | Ratio EC50 [11]: 188 | Ratio EC50 [12]: 43 | Ratio EC50 [13]: 442 | Ratio EC50 [14]: 3

Cc1c(C(C#N)c2c(F)cccc2Cl)nc(SC(C)C)[nH]c1=O (configuration not stated)
EC50 [1]: 0.0184 µM | CC50 at 120 h [2]: 74.7 µM | selectivity ratio [3]: 4050 | EC50 [4]: 1.06 µM | EC50 [5]: 3.3 µM | EC50 [6]: 1.4 µM | EC50 [7]: > 58.7 µM | EC50 [8]: 0.09 µM | IC50 [9]: 0.074 µM | Ratio EC50 [10]: 58 | Ratio EC50 [11]: 179 | Ratio EC50 [12]: 76 | Ratio EC50 [13]: 3191 | Ratio EC50 [14]: 5

Cc1c(C(C#N)c2ccc(F)c(C#N)c2)nc(SC(C)C)[nH]c1=O (configuration not stated)
EC50 [1]: 21.4 µM | CC50 at 120 h [2]: 164 µM | selectivity ratio [3]: 8 | EC50 [4]: 57 µM | EC50 [5]: > 164 µM | EC50 [6]: > 164 µM | EC50 [7]: > 164 µM | EC50 [8]: 41.9 µM | IC50 [9]: 83.8 µM | Ratio EC50 [10]: 3 | Ratio EC50 [11]: >8 | Ratio EC50 [12]: >8 | Ratio EC50 [13]: >8 | Ratio EC50 [14]: 2

Cc1c(C(C#N)c2cccnc2)nc(SC(C)C)[nH]c1=O (configuration not stated)
EC50 [1]: 26.2 µM | CC50 at 120 h [2]: 363 µM | selectivity ratio [3]: 14 | EC50 [4]: 47.9 µM | EC50 [5]: > 363 µM | EC50 [6]: > 363 µM | EC50 [7]: > 363 µM | EC50 [8]: 54.1 µM | IC50 [9]: 318 µM | Ratio EC50 [10]: 2 | Ratio EC50 [11]: >14 | Ratio EC50 [12]: >14 | Ratio EC50 [13]: >14 | Ratio EC50 [14]: 2

Cc1cc(C)cc(C(C#N)c2nc(SC(C)C)[nH]c(=O)c2C)c1 (configuration not stated)
EC50 [1]: 0.079 µM | CC50 at 120 h [2]: 220 µM | selectivity ratio [3]: 2770 | EC50 [4]: 2.29 µM | EC50 [5]: 9.05 µM | EC50 [6]: 4.11 µM | EC50 [7]: 55.5 µM | EC50 [8]: 0.45 µM | IC50 [9]: 0.226 µM | Ratio EC50 [10]: 29 | Ratio EC50 [11]: 115 | Ratio EC50 [12]: 52 | Ratio EC50 [13]: 702 | Ratio EC50 [14]: 6

Cc1c(C(C#N)c2ccc(Cl)nc2)nc(SC(C)C)[nH]c1=O (configuration not stated)
EC50 [1]: 20.6 µM | CC50 at 120 h [2]: 216 µM | selectivity ratio [3]: 10 | EC50 [4]: 32.3 µM | EC50 [5]: 41.3 µM | EC50 [6]: 41.3 µM | EC50 [7]: > 216 µM | EC50 [8]: 28.6 µM | IC50 [9]: 203 µM | Ratio EC50 [10]: 2 | Ratio EC50 [11]: 2 | Ratio EC50 [12]: 2 | Ratio EC50 [13]: >10 | Ratio EC50 [14]: 1

Cc1c(C(C#N)c2ccccc2C(F)(F)F)nc(SC(C)C)[nH]c1=O (configuration not stated)
EC50 [1]: 2.61 µM | CC50 at 120 h [2]: 251 µM | selectivity ratio [3]: 96 | EC50 [4]: 5.92 µM | EC50 [5]: > 67.6 µM | EC50 [6]: 10.1 µM | EC50 [7]: > 251 µM | EC50 [8]: 3.34 µM | IC50 [9]: 5.99 µM | Ratio EC50 [10]: 2 | Ratio EC50 [11]: >26 | Ratio EC50 [12]: 4 | Ratio EC50 [13]: >96 | Ratio EC50 [14]: 1

Cc1c(C(C#N)c2cc(Cl)cc(Cl)c2)nc(SC(C)C)[nH]c1=O (configuration not stated)
EC50 [1]: 0.66 µM | CC50 at 120 h [2]: 28.9 µM | selectivity ratio [3]: 44 | EC50 [4]: > 13.2 µM | EC50 [5]: > 28.9 µM | EC50 [6]: 11.4 µM | EC50 [7]: > 28.9 µM | EC50 [8]: 4.22 µM | IC50 [9]: 0.479 µM | Ratio EC50 [10]: >20 | Ratio EC50 [11]: >44 | Ratio EC50 [12]: 17 | Ratio EC50 [13]: >44 | Ratio EC50 [14]: 6

Cc1c(C(C#N)c2cccc3c2OCO3)nc(SC(C)C)[nH]c1=O (configuration not stated)
EC50 [1]: 0.45 µM | CC50 at 120 h [2]: 96.5 µM | selectivity ratio [3]: 213 | EC50 [4]: 10 µM | EC50 [5]: > 96.5 µM | EC50 [6]: 50.7 µM | EC50 [7]: > 96.5 µM | EC50 [8]: 1.94 µM | IC50 [9]: 1.35 µM | Ratio EC50 [10]: 22 | Ratio EC50 [11]: >214 | Ratio EC50 [12]: 113 | Ratio EC50 [13]: >214 | Ratio EC50 [14]: 4

Cc1c(C(C#N)c2ccc(Br)cc2)nc(SC(C)C)[nH]c1=O (configuration not stated)
EC50 [1]: 0.67 µM | CC50 at 120 h [2]: 47.1 µM | selectivity ratio [3]: 71 | EC50 [4]: > 10.3 µM | EC50 [5]: > 47.1 µM | EC50 [6]: > 47.1 µM | EC50 [7]: > 47.1 µM | EC50 [8]: 1.25 µM | IC50 [9]: 1.78 µM | Ratio EC50 [10]: >15 | Ratio EC50 [11]: >70 | Ratio EC50 [12]: >70 | Ratio EC50 [13]: >70 | Ratio EC50 [14]: >2

Cc1c(C(C#N)c2cc(Cl)cc(C(F)(F)F)c2)nc(SC(C)C)[nH]c1=O (configuration not stated)
EC50 [1]: 4.17 µM | CC50 at 120 h [2]: 23.1 µM | selectivity ratio [3]: 6 | EC50 [4]: > 23.1 µM | EC50 [5]: > 23.1 µM | EC50 [6]: > 23.1 µM | EC50 [7]: > 23.1 µM | EC50 [8]: 10.9 µM | IC50 [9]: 3.52 µM | Ratio EC50 [10]: >6 | Ratio EC50 [11]: >6 | Ratio EC50 [12]: >6 | Ratio EC50 [13]: >6 | Ratio EC50 [14]: 3
